One assay concerns apomorphine syndrome. The note with it: claimed in prior art; cited from earlier work.
The next assay addresses T1, dopamine receptors (Rattus norvegicus, UniProt P61169).
T1 construct: The striata were dissected, pooled and homogenized in 50 mM Tris-HCl buffer (pH 7.6); from tissue; host or cells: striata of male Sprague-Dawley rats, membrane fraction
As to the kind of experiment: Receptor binding assay: in vitro block of 3H-spiperone binding, rat striatal membranes. Further details: species or system Male Sprague-Dawley rats. The note with it: rat striatum; 3H-spiperone 0.4 nM; 10 minutes at 37° C. On the procedure: The assays have been carried out using a cell harvester equipment. The incubations were made in quadruplicate, each well containing membrane suspension (2.5 mg/0.5 ml), ^3 H-spiperone (0.4 nM) and the test compound in a final volume of 0.5 ml. After incubation for 10 minutes at 37° C., the contents of the wells were rapidly filtered and washed on Whatman GF/B filters using the Cell harvester. The specific binding was defined as the difference of ligand bound in the […] of 1 μM (+)-butaclamol. The test results are expressed as IC50.

The subject of assay [1] is DA receptors linked to the nigro neostriatal DA system (apomorphine stereotypies). As to the kind of experiment: Reduction of apomorphine-induced stereotypies in the rat. The note with it: i.p.; 60 min prior to apomorphine hydrochloride 1 mg/kg s.c.; 60 min observation. Format: in vivo, Male Sprague-Dawley rats. The text has this: (§1) There are presently several techniques available to study DA receptor blockage in the brain in vivo. One method is based on the ability of antipsychotic drugs to block the behavioral effects induced by the DA agonist apomorphine in the rat. Several studies indicate an excellent correlation between the in vivo DA receptor blockage as measured in the apomorphine test and therapeutic efficacy of different antipsychotic drugs. Apomorphine produces in rats and other species a characteristic syndrome consisting of repetitive movements (stereotypies) and hyperactivity which appear to be due to activation of postsynaptic DA receptors in the brain (J. Pharm. Pharmacol. 19, 627, 1967; J. Neurol. transm. 40, 97-113, 1977). […]
Directly after injection, the animals were placed in the cages, one in each cage. […] The strength of the stereotype was scored on a 0-3 scale as follows:
(§2) In the second system the number of animals displaying hyperactivity caused by apomorphine were scored. […] The ED50 were calculated from log dose-response curves by the method of least squares from 4-6 dose levels with 6-8 animals per dose level.

Assay [2] relates to DA receptors in subcortical mesolimbic structures (apomorphine hyperactivity). Briefly: Reduction of apomorphine-induced hyperactivity in the rat. Format: in vivo, Male Sprague-Dawley rats. The note with it: i.p.; 60 min prior to apomorphine hydrochloride 1 mg/kg s.c.; 60 min observation.
Excerpt: as §1, with “1977). The stereotypies (chewing, licking, biting) appear mainly to be induced via activation of DA receptors linked to the nigro neostriatal DA system (J. Psychiat. Res., 11, 1, 1974) whereas the increased locomotion (hyperactivity) mainly appears to be due to activation of DA receptors in subcortical mesolimbic structures (nucleus olfactorium, nucleus accumbens) i.e. the mesolimbic DA system. (J. Pharm. Pharmacol. 25, 1003, 1973).” for “1977).”
as §2

This is an account of results in patent US5240957A, “Oxysalicylamido derivatives” (Astra Lakemedel Akteibolag, priority 1984, dated 1993).

T1 sequence (P61169 whole entry): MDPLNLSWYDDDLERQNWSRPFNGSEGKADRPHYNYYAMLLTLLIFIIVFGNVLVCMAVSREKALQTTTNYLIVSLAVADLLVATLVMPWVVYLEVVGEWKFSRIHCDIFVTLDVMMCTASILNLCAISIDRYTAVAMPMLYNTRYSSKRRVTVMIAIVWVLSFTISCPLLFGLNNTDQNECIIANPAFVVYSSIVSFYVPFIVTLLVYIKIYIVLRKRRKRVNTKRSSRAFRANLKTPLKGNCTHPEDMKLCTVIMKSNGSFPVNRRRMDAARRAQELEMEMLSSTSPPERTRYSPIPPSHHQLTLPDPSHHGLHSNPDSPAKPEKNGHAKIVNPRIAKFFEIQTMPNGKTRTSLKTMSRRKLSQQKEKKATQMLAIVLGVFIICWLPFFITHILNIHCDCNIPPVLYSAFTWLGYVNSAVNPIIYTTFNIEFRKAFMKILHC

Consider `CCN1CCCC1CNC(=O)c1c(O)c(Cl)cc(Cl)c1OC` (centres unmarked), for which the “antagonism/inhibition of the apomorphine syndrome in the rat” value in the assay with apomorphine syndrome was “potent inhibitors”.
Usually IC50 stands for the midpoint of a concentration-inhibition curve. A low value points to greater potency in that assay. At dopamine receptors, `CCCc1cc(OC)c(OC)c(C(=O)NC[C@@H]2CCCN2CC)c1O` came in with an IC50 of 2.4 nM.
`CCN1CCC[C@H]1CNC(=O)c1c(O)c(Br)cc(OC)c1OC` yielded an IC50 at dopamine receptors of 1.4 nM.
The same measure, in the same setting: the same measure for `CCc1cc(OC)c(OC)c(C(=O)NC[C@@H]2CCCN2CC)c1O`: 1.3 nM; for `CCN1CCC[C@H]1CNC(=O)c1c(O)ccc(OC)c1OC`: 8.8 nM.
At dopamine receptors, `CCN1CCC[C@H]1CNC(=O)c1c(O)c(Cl)cc(OC)c1OC` showed an IC50 of 0.3 nM.
Regarding `C=CCN1CCC[C@H]1CNC(=O)c1c(O)c(Br)cc(OC)c1OC`, the IC50 on dopamine receptors is 2.3 nM.
Same read-out and setting: the same measure for `COc1cc(Br)c(O)c(C(=O)NC[C@H]2CCCN2Cc2ccc(F)cc2)c1OC`: 1.3 nM.
Turning to `CCN1CCC[C@H]1CNC(=O)c1c(O)c(Cl)cc(Cl)c1OC`, in assay [1], the “Reduction of stereotypies ED50” value came to 2.4 µmol/kg. Moreover, the “Reduction of hyperactivity ED50” value in assay [2] is 0.11 µmol/kg.
As to `CCN1CCC[C@H]1CNC(=O)c1c(OC)ccc(Br)c1OC` [Remoxipride], the “antagonism/inhibition of the apomorphine syndrome in the rat” value with apomorphine syndrome is recorded as “potent antagonist”.
